Assay results reported in PubChem BioAssay AID1963962 (Molecular Pharmacology Branch, DTP, NCI, 2024).

System: 967376-340-R-J2-PDC multicell spheroid viability
Assay: Anticancer human tumor 967376-340-R-J2-PDC patient-derived colon adenocarcinoma cell line growth inhibition [PI3K]
Settings: for IC50: curve of first compound; for viability, T/C: stronger effect = lower value
Summary of the method: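 Viability of mixed-cell spheroids was determined after exposure to pairwise combinations, one partner being inavolisib, alpelisib, duvelisib or copanlisib. Highest tested concentration matched clinical Cmax where known and 10 microM where not, descending in half-log steps.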

[1] = second compound 0.00316 µM, first compound 0.0316 µM
[2] = second compound 0.00316 µM, first compound 0.1 µM
[3] = second compound 0.00316 µM, first compound 0.316 µM
[4] = second compound 0.00316 µM, first compound 1 µM
[5] = second compound 0.00316 µM, first compound 3.16 µM
[6] = second compound 0.00316 µM, first compound 10 µM
[7] = second compound 0.01 µM, first compound 0.0316 µM
[8] = second compound 0.01 µM, first compound 0.1 µM
[9] = second compound 0.01 µM, first compound 0.316 µM
[10] = second compound 0.01 µM, first compound 1 µM
[11] = second compound 0.01 µM, first compound 3.16 µM
[12] = second compound 0.01 µM, first compound 10 µM
[13] = second compound 0.0316 µM, first compound 0.0316 µM
[14] = second compound 0.0316 µM, first compound 0.1 µM
[15] = second compound 0.0316 µM, first compound 0.316 µM
[16] = second compound 0.0316 µM, first compound 1 µM
[17] = second compound 0.0316 µM, first compound 3.16 µM
[18] = second compound 0.0316 µM, first compound 10 µM
[19] = second compound 0.1 µM, first compound 0.0316 µM
[20] = second compound 0.1 µM, first compound 0.1 µM
[21] = second compound 0.1 µM, first compound 0.316 µM
[22] = second compound 0.1 µM, first compound 1 µM
[23] = second compound 0.1 µM, first compound 3.16 µM
[24] = second compound 0.1 µM, first compound 10 µM
[25] = second compound 0.316 µM, first compound 0.0316 µM
[26] = second compound 0.316 µM, first compound 0.1 µM
[27] = second compound 0.316 µM, first compound 0.316 µM
[28] = second compound 0.316 µM, first compound 1 µM
[29] = second compound 0.316 µM, first compound 3.16 µM
[30] = second compound 0.316 µM, first compound 10 µM
[31] = second compound 1 µM, first compound 0.0316 µM
[32] = second compound 1 µM, first compound 0.1 µM
[33] = second compound 1 µM, first compound 0.316 µM
[34] = second compound 1 µM, first compound 1 µM
[35] = second compound 1 µM, first compound 3.16 µM
[36] = second compound 1 µM, first compound 10 µM
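Further: spheroids exposed to agents for 7 days before read-out.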
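Wherever viability, T/C is given: luminescence used as surrogate of cell viability.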

SMILES: CC1(C)CCC(CN2CCN(c3ccc(C(=O)NS(=O)(=O)c4ccc(NCC5CCOCC5)c([N+](=O)[O-])c4)c(Oc4cnc5[nH]ccc5c4)c3)CC2)=C(c2ccc(Cl)cc2)C1 + COc1c(OCCCN2CCOCC2)ccc2c3n(c(=NC(=O)c4cnc(N)nc4)nc12)CCN3
- IC50 (second compound 0.00316 µM): > 10000 nM
- IC50 (second compound 0.01 µM): > 10000 nM
- IC50 (second compound 0.0316 µM): 7860 nM
- IC50 (second compound 0.1 µM): 1200 nM
- IC50 (second compound 0.316 µM): < 31.6 nM
- IC50 (second compound 1 µM): < 31.6 nM
- viability, T/C [1]: 92.6%
- viability, T/C [2]: 82%
- viability, T/C [3]: 94.8%
- viability, T/C [4]: 108%
- viability, T/C [5]: 81.6%
- viability, T/C [6]: 64.3%
- viability, T/C [7]: 83.2%
- viability, T/C [8]: 87.6%
- viability, T/C [9]: 82.9%
- viability, T/C [10]: 75.8%
- viability, T/C [11]: 76.4%
- viability, T/C [12]: 55.8%
- viability, T/C [13]: 76.9%
- viability, T/C [14]: 73.6%
- viability, T/C [15]: 63.6%
- viability, T/C [16]: 67.2%
- viability, T/C [17]: 62.6%
- viability, T/C [18]: 46.1%
- viability, T/C [19]: 56.6%
- viability, T/C [20]: 67%
- viability, T/C [21]: 44.2%
- viability, T/C [22]: 48.5%
- viability, T/C [23]: 54.6%
- viability, T/C [24]: 39.5%
- viability, T/C [25]: 35.4%
- viability, T/C [26]: 44.6%
- viability, T/C [27]: 31.2%
- viability, T/C [28]: 40%
- viability, T/C [29]: 37.4%
- viability, T/C [30]: 21.4%
- viability, T/C [31]: 48.5%
- viability, T/C [32]: 28.9%
- viability, T/C [33]: 35.2%
- viability, T/C [34]: 24.8%
- viability, T/C [35]: 30.9%
- viability, T/C [36]: 27.8%

SMILES: C[C@@H](NC(=O)c1ncnc(N)c1Cl)c1ncc(C(=O)Nc2cc(C(F)(F)F)c(Cl)cn2)s1 + COc1c(OCCCN2CCOCC2)ccc2c3n(c(=NC(=O)c4cnc(N)nc4)nc12)CCN3
- IC50 (second compound 0.00316 µM): > 10000 nM
- IC50 (second compound 0.01 µM): > 10000 nM
- IC50 (second compound 0.0316 µM): > 10000 nM
- IC50 (second compound 0.1 µM): > 10000 nM
- IC50 (second compound 0.316 µM): < 31.6 nM
- IC50 (second compound 1 µM): < 31.6 nM
- viability, T/C [1]: 94.3%
- viability, T/C [2]: 86.9%
- viability, T/C [3]: 80.6%
- viability, T/C [4]: 89.7%
- viability, T/C [5]: 120%
- viability, T/C [6]: 123%
- viability, T/C [7]: 93.2%
- viability, T/C [8]: 84.5%
- viability, T/C [9]: 91.9%
- viability, T/C [10]: 100%
- viability, T/C [11]: 112%
- viability, T/C [12]: 91.3%
- viability, T/C [13]: 67.7%
- viability, T/C [14]: 77.1%
- viability, T/C [15]: 71.9%
- viability, T/C [16]: 63%
- viability, T/C [17]: 93.3%
- viability, T/C [18]: 107%
- viability, T/C [19]: 66.6%
- viability, T/C [20]: 51.5%
- viability, T/C [21]: 70.1%
- viability, T/C [22]: 62.7%
- viability, T/C [23]: 62.8%
- viability, T/C [24]: 70.2%
- viability, T/C [25]: 49%
- viability, T/C [26]: 49.6%
- viability, T/C [27]: 49.2%
- viability, T/C [28]: 43.2%
- viability, T/C [29]: 56.6%
- viability, T/C [30]: 62.6%
- viability, T/C [31]: 43%
- viability, T/C [32]: 33%
- viability, T/C [33]: 38.5%
- viability, T/C [34]: 38.1%
- viability, T/C [35]: 45.7%
- viability, T/C [36]: 45%

SMILES: Cn1ncnc1[C@H]1c2n[nH]c(=O)c3cc(F)cc(c23)N[C@@H]1c1ccc(F)cc1 + COc1c(OCCCN2CCOCC2)ccc2c3n(c(=NC(=O)c4cnc(N)nc4)nc12)CCN3
- IC50 (second compound 0.00316 µM): > 100 nM
- IC50 (second compound 0.01 µM): > 100 nM
- IC50 (second compound 0.0316 µM): > 100 nM
- IC50 (second compound 0.1 µM): > 100 nM
- IC50 (second compound 0.316 µM): < 0.316 nM
- IC50 (second compound 1 µM): < 0.316 nM
- viability, T/C (second compound 0.00316 µM, first compound 0.000316 µM): 102%
- viability, T/C (second compound 0.00316 µM, first compound 0.001 µM): 95%
- viability, T/C (second compound 0.00316 µM, first compound 0.00316 µM): 76.1%
- viability, T/C (second compound 0.00316 µM, first compound 0.01 µM): 97%
- viability, T/C [1]: 88.7%
- viability, T/C [2]: 105%
- viability, T/C (second compound 0.01 µM, first compound 0.000316 µM): 76.6%
- viability, T/C (second compound 0.01 µM, first compound 0.001 µM): 94.9%
- viability, T/C (second compound 0.01 µM, first compound 0.00316 µM): 81.1%
- viability, T/C (second compound 0.01 µM, first compound 0.01 µM): 73.9%
- viability, T/C [7]: 80.5%
- viability, T/C [8]: 87.9%
- viability, T/C (second compound 0.0316 µM, first compound 0.000316 µM): 85.2%
- viability, T/C (second compound 0.0316 µM, first compound 0.001 µM): 90.4%
- viability, T/C (second compound 0.0316 µM, first compound 0.00316 µM): 74.5%
- viability, T/C (second compound 0.0316 µM, first compound 0.01 µM): 70.9%
- viability, T/C [13]: 66.8%
- viability, T/C [14]: 73.4%
- viability, T/C (second compound 0.1 µM, first compound 0.000316 µM): 53.3%
- viability, T/C (second compound 0.1 µM, first compound 0.001 µM): 70.4%
- viability, T/C (second compound 0.1 µM, first compound 0.00316 µM): 56.5%
- viability, T/C (second compound 0.1 µM, first compound 0.01 µM): 53.5%
- viability, T/C [19]: 62.5%
- viability, T/C [20]: 56.4%
- viability, T/C (second compound 0.316 µM, first compound 0.000316 µM): 42.1%
- viability, T/C (second compound 0.316 µM, first compound 0.001 µM): 40.9%
- viability, T/C (second compound 0.316 µM, first compound 0.00316 µM): 44.6%
- viability, T/C (second compound 0.316 µM, first compound 0.01 µM): 36.2%
- viability, T/C [25]: 52.7%
- viability, T/C [26]: 43.2%
- viability, T/C (second compound 1 µM, first compound 0.000316 µM): 27.8%
- viability, T/C (second compound 1 µM, first compound 0.001 µM): 26.8%
- viability, T/C (second compound 1 µM, first compound 0.00316 µM): 39.8%
- viability, T/C (second compound 1 µM, first compound 0.01 µM): 55.2%
- viability, T/C [31]: 32.9%
- viability, T/C [32]: 26.9%
